From ChEMBL document CHEMBL6071133, “Discovery of novel penetrating peptides able to target human leukemia and lymphoma for enhanced PROTAC delivery” (Eur J Med Chem, 2024)
Calls of active or inactive are those of the source. The calls are words filed in the database; no cut-off is given here.

What was measured:
[1] = Cytotoxicity against human CCRF-CEM cells assessed as cell viability at 0.01 to 100 uM incubated for 48 hrs by MTT assay; assay type: toxicity, cell-based; settings: dose 0.01-100 µM, read-out: Activity
[2] = Drug uptake in human THP-1 cells assessed as increase in fluorescence intensity at 10 umol/L incubated for 2 hrs by cell imaging based fluorescence microscopic analysis; assay type: ADME; settings: thp-1, 2 h, 10 µM, dose 10 µmol/L
[3] = Interaction with IMA-PROTAC assessed as induction of assembly formation by transmission electron microscopy; assay type: physicochemical
K562 [4] = assay: Induction of apoptosis in human K562 cells assessed as necrotic cells at PROTAC to compound concentration ratio of 1:5 incubated for 48 hrs in presence of 3 umol/L IMA-PROTAC by AnnexinV-FITC/PI staining based flow cytometry (reference value: 0.1%); assay type: functional
K562 [5] = assay: Induction of apoptosis in human K562 cells assessed as late apoptotic cells at PROTAC to compound concentration ratio of 1:5 incubated for 48 hrs in presence of 3 umol/L IMA-PROTAC by AnnexinV-FITC/PI staining based flow cytometry (reference value: 0.01%); assay type: functional
[6] = Drug uptake in human K562 cells assessed as increase in fluorescence intensity at 1 to 10 umol/L incubated for 2 hrs by cell imaging based fluorescence microscopic analysis; assay type: ADME; settings: k562, 2 h, dose 1-10 µmol/L
[7] = Drug uptake in human CCRF-CEM cells assessed as perinuclear distribution and colocalization with nucleus at 10 umol/L incubated for 2 hrs by confocal laser microscopy; assay type: ADME, cell-based; settings: 10 µM, dose 10 µmol/L
[8] = Cytotoxicity against human K562 cells assessed as cell viability at 0.01 to 100 uM incubated for 48 hrs by MTT assay; assay type: toxicity, cell-based; settings: dose 0.01-100 µM, read-out: Activity
K562 [9] = assay: Induction of cell cycle arrest in human K562 cells assessed as accumulation of cells at G2/M phase at PROTAC to compound concentration ratio of 1:5 incubated for 48 hrs in presence of 3 umol/L IMA-PROTAC by propidium iodide staining based flow cytometry; assay type: functional
[10] = Drug uptake in human K562 cells assessed as fluorescence intensity at 5 umol/L pretreated with endocytosis inhibitor, chlorpromazine for 0.5 hrs followed by incubation with compound for 2 hrs by FACS analysis; assay type: ADME, cell-based; settings: k562, 2 h, 5 µM, dose 5 µmol/L
[11] = Drug uptake in human KU812 cells assessed as membrane penetration by measuring increase in fluorescence intensity at 5 umol/L incubated for 2 hrs by flow cytometry relative to C9C; assay type: ADME, cell-based; settings: ku812, 2 h, 5 µM, dose 5 µmol/L
[12] = Drug uptake in human K562 cells assessed as membrane permeability by measuring increase in fluorescence intensity at 5 umol/L incubated for 2 hrs by flow cytometry relative to THP-1 cells; assay type: ADME, cell-based; settings: k562, 2 h, 5 µM, dose 5 µmol/L
K562 [13] = assay: Increase in membrane permeability of IMA-PROTAC in human K562 cells assessed as potentiation of IMA-PROTAC-induced Bcr-Abl degradation at PROTAC to compound concentration ratio of 1:5 pretreated with proteasome inhibitor, MG132 and carfilzomib followed by incubation with compound for 48 hrs in presence of 3 umol/L IMA-PROTAC by western blot analysis; assay type: functional, cell-based
[14] = Drug uptake in human KU812 cells assessed as increase in fluorescence intensity at 1 to 10 umol/L incubated for 2 hrs by cell imaging based fluorescence microscopic analysis; assay type: ADME; settings: ku812, 2 h, dose 1-10 µmol/L
[15] = Drug uptake in human K562 cells assessed as perinuclear distribution and colocalization with nucleus at 10 umol/L incubated for 2 hrs by confocal laser microscopy; assay type: ADME, cell-based; settings: k562, 2 h, 10 µM, dose 10 µmol/L
K562 [16] = assay: Potentiation of IMA-PROTAC-induced cytotoxicity against human K562 cells assessed as inhibition of cell growth at compound: IMA-PROTAC concentration ratio of 5:1 incubated for 48 hrs in presence of 3 umo/L IMA-PROTAC by MTT assay; assay type: functional, cell-based
[17] = Drug uptake in human KU812 cells assessed as perinuclear distribution and colocalization with nucleus at 10 umol/L incubated for 2 hrs by confocal laser microscopy; assay type: ADME, cell-based; settings: ku812, 2 h, 10 µM, dose 10 µmol/L
[18] = Drug uptake in human K562 cells assessed as increase in fluorescence intensity at 5 umol/L pretreated with endocytosis inhibitor, nystatin for 0.5 hrs followed by incubation with compound for 2 hrs by FACS analysis; assay type: ADME, cell-based; settings: k562, 2 h, 5 µM, dose 5 µmol/L
[19] = Drug uptake in human K562 cells assessed as fluorescence intensity at 5 umol/L pretreated with endocytosis inhibitor, methyl-beta-cyclodextrin for 0.5 hrs followed by incubation with compound for 2 hrs by FACS analysis; assay type: ADME, cell-based; settings: k562, 2 h, 5 µM, dose 5 µmol/L
[20] = Drug uptake in human CCRF-CEM cells assessed as increase in fluorescence intensity at 5 umol/L measured for 5 to 240 mins by flow cytometry; assay type: ADME, cell-based; settings: 5 µM, TDE = time-dependent effect, time 5-240 min, dose 5 µmol/L
[21] = Stability of the compound in fetal bovine serum assessed as parent compound remaining measured after 36 hrs by HPLC-MS analysis; assay type: ADME, cell-free, Bos taurus; settings: cattle, read-out: Stability
[22] = Drug uptake in human CCRF-CEM cells assessed as increase in fluorescence intensity at 1 to 10 umol/L incubated for 2 hrs by cell imaging based fluorescence microscopic analysis; assay type: ADME; settings: dose 1-10 µmol/L
[23] = Drug uptake in human K562 cells assessed as increase in fluorescence intensity at 5 umol/L measured for 5 to 240 mins by flow cytometry; assay type: ADME, cell-based; settings: k562, 5 µM, TDE = time-dependent effect, time 5-240 min, dose 5 µmol/L
[24] = Cytotoxicity against human KU812 cells assessed as cell viability at 0.01 to 100 uM incubated for 48 hrs by MTT assay; assay type: toxicity, cell-based; settings: dose 0.01-100 µM, read-out: Activity
K562 [25] = assay: Increase in membrane permeability of IMA-PROTAC in human K562 cells assessed as potentiation of IMA-PROTAC-induced inhibition of STAT5 phosphorylation at PROTAC to compound concentration ratio of 1:3 incubated for 48 hrs in presence of 3 umol/L IMA-PROTAC by western blot analysis; assay type: functional, cell-based
[26] = Stability of the compound in fetal bovine serum assessed as parent compound remaining measured after 12 hrs by HPLC-MS analysis; assay type: ADME, cell-free, Bos taurus; settings: cattle, read-out: Stability
[27] = Drug uptake in human CCRF-CEM cells assessed as increase in fluorescence intensity at 1 to 10 uM incubated for 2 hrs by flow cytometry; assay type: ADME, cell-based; settings: dose 1-10 µM
[28] = Stability of the compound in fetal bovine serum assessed as parent compound remaining measured after 8 hrs by HPLC-MS analysis; assay type: ADME, cell-free, Bos taurus; settings: cattle, read-out: Stability
[29] = Drug uptake in human KU812 cells assessed as membrane permeability by measuring increase in fluorescence intensity at 5 umol/L incubated for 2 hrs by flow cytometry relative to THP-1 cells; assay type: ADME, cell-based; settings: ku812, 2 h, 5 µM, dose 5 µmol/L
[30] = Drug uptake in human KU812 cells assessed as increase in fluorescence intensity at 1 to 10 uM incubated for 2 hrs by flow cytometry; assay type: ADME, cell-based; settings: ku812, 2 h, dose 1-10 µM
K562 [31] = assay: Induction of apoptosis in human K562 cells assessed as viable cells at PROTAC to compound concentration ratio of 1:5 incubated for 48 hrs in presence of 3 umol/L IMA-PROTAC by AnnexinV-FITC/PI staining based flow cytometry (reference value: 99.85%); assay type: functional

## CC(C)C[C@H](NC(=O)[C@H](Cc1csc2ccccc12)NC(=O)[C@@H](Cc1ccccc1)NC(=O)[C@H](Cc1ccccc1)NC(=O)CNC(=O)[C@@H](N)CS)C(=O)N[C@@H](CCCNC(=N)N)C(=O)N[C@@H](CO)C(=O)N[C@@H](CS)C(=O)O
[1]
  viability at 48 h, up to 100 µM: > 75%
[2]
  Drug uptake: Active
[3]
  Activity: Not Active
K562 [4]
  Activity: 0%
K562 [5]
  Activity: 13.98%
[6]
  Drug uptake: Active
[7]
  Drug uptake: Active
[8]
  viability at 48 h, up to 100 µM: > 75%
K562 [9]
  Activity: Active
[10]
  Drug uptake: Not Active
[11]
  fold change (FC): 4.45
[12]
  fold change (FC): 8.8
K562 [13]
  Activity: inactive
[14]
  Drug uptake: Active
[15]
  Drug uptake: Active
K562 [16]
  Activity: inactive
[17]
  Drug uptake: Active
[18]
  Drug uptake: Active
[19]
  Drug uptake: Not Active
[20]
  Drug uptake: Tde
[21]
  remaining at 36 h: 55%
[22]
  Drug uptake: Active
[23]
  Drug uptake: Tde
[24]
  viability at 48 h, up to 100 µM: > 75%
K562 [25]
  Activity: Active
[26]
  remaining at 12 h: 80%
[27]
  Drug uptake: Dose-Dependent Effect
[28]
  remaining at 8 h: 100%
[29]
  fold change (FC): 4
[30]
  Drug uptake: Dose-Dependent Effect
K562 [31]
  Activity: 63.19%
